Converted amounts (≈) assume the structure as drawn.
Experiments:
PC-12 = assay: Cytoprotection against SOD1 G93A mutant induced cytotoxicity in rat PC12 cells assessed as reduction of protein aggregates by fluorescent assay; assay type: functional, cell-based
[1] = Ratio of permeability from basolateral to apical side over apical to basolateral side in human Caco2 cells; details: Caco-2
Caco-2 [2] = assay: Apparent Permeability across basolateral to apical side in human Caco2 cells at 50 uM after 2 hrs; details: caco-2, 2 h
Caco-2 [3] = assay: Apparent Permeability across apical side to basolateral side in human Caco2 cells at 50 uM after 2 hrs; details: caco-2, 2 h
[4] = Solubility of the compound in PBS buffer after 16 hrs
Liver microsomes = assay: Half life of the compound in human liver microsomes
Liver = assay: Half life of the compound in B6SJL mouse liver microsome; details: microsomes
Plasma = assay: Half life in B6SJL mouse plasma by LC-MS/MS analysis

O=C1CC(=O)N(CCc2ccc(F)cc2)C(=O)N1CCCCc1ccccc1
EC50 (PC-12): 3.55 µM

COc1ccc(CCN2C(=O)CC(=O)N(CCc3ccc(OC)c(OC)c3)C2=O)cc1OC
EC50 (PC-12): 11.6 µM

O=C1CC(=O)N(CCCCc2ccccc2)C(=O)N1CCCCc1ccccc1
EC50 (PC-12): 0.68 µM
efflux ratio [1]: 3.3
Papp (Caco-2 [2]): 30.2 ×10⁻⁶ cm/s
Papp (Caco-2 [3]): 9.2 ×10⁻⁶ cm/s
solubility [4]: 105 µM (≈ 41.2 µg/mL)
t1/2 (Liver microsomes): 15 min
t1/2 (Liver): 11 min
t1/2 (Plasma): 21.8 min

O=C1CC(=O)N(CCc2cccs2)C(=O)N1CCc1ccccc1
EC50 (PC-12): 3.39 µM

O=c1cc(Cl)n(CCc2ccccc2)c(=O)n1CCc1ccccc1
EC50 (PC-12): > 32 µM

O=C1CC(=O)N(CCc2cccs2)C(=O)N1CCc1ccc(F)cc1
EC50 (PC-12): 2.16 µM

O=C1CC(=O)N(C2CCc3ccccc32)C(=O)N1C1CCc2ccccc21 (configuration not stated)
EC50 (PC-12): > 32 µM

COc1cc(=O)n(CCc2ccccc2)c(=O)n1CCc1ccccc1
EC50 (PC-12): > 32 µM

CC1C(=O)N(CCc2ccccc2)C(=O)N(CCc2ccccc2)C1=O
EC50 (PC-12): > 32 µM

O=C1C(=CC2CCCCC2)C(=O)N(CCc2ccccc2)C(=O)N1CCc1ccccc1
EC50 (PC-12): > 32 µM

O=C1CC(=O)N(CCN2CCOCC2)C(=O)N1CCc1ccc(F)cc1
EC50 (PC-12): > 32 µM

O=C1CC(=O)N(CCc2ccc(Cl)cc2)C(=O)N1CCc1ccc(Cl)cc1
EC50 (PC-12): 3.26 µM

Cc1cc(C=C2C(=O)N(CCc3ccccc3)C(=O)N(CCc3ccccc3)C2=O)c(C)n1-c1ccccc1
EC50 (PC-12): 0.87 µM

O=C1C(=O)N(C2CCCCC2)C(=O)N1C1CCCCC1
EC50 (PC-12): > 32 µM

CCOCCN1C(=O)CC(=O)N(CCOCC)C1=O
EC50 (PC-12): 7.75 µM

O=C1CC(=O)N(C2CCCCC2)C(=O)N1CCc1ccccc1
EC50 (PC-12): 1.67 µM

CCCN1C(=O)CC(=O)N(CCC)C1=O
EC50 (PC-12): 7.68 µM

CCCCN1C(=O)CC(=O)NC1=O
EC50 (PC-12): > 32 µM

O=C1CC(=O)N(CCCc2ccccc2)C(=O)N1CCCc1ccccc1
EC50 (PC-12): 1.32 µM

O=C1CC(=O)N(C2CCCCC2)C(=O)N1C1CCCCC1
EC50 (PC-12): 2.97 µM

O=C1CC(=O)N(Cc2ccccc2)C(=O)N1CCc1ccccc1
EC50 (PC-12): 1.9 µM

O=C1C(=Cc2c(Cl)cccc2Cl)C(=O)N(CCc2ccccc2)C(=O)N1CCc1ccccc1
EC50 (PC-12): 3.1 µM

O=C1CC(=O)N(CCc2ccccc2)C(=O)N1CCCc1ccccc1
EC50 (PC-12): 1.88 µM

O=C1CC(=O)N(CCc2ccc(F)cc2)C(=O)N1CCc1ccc(F)cc1
EC50 (PC-12): 3.45 µM

O=C1CC(=O)N(CCc2ccc(Cl)cc2)C(=O)N1CCc1ccccc1
EC50 (PC-12): 1.19 µM
